The CheMixHub drug solubility set

Assay: xn = mol fraction of the nth substance listed, in the solute-free solvent

N#CC(c1ccc(Cl)cc1)c1c(Cl)cc(-n2ncc(=O)[nH]c2=O)cc1Cl (centres undefined) + CC(C)=O + CCO
solubility (g/100 g solution)
Details | 283.15 K | 288.15 K | 293.15 K | 298.15 K | 303.15 K | 308.15 K | 313.15 K | 318.15 K | 323.15 K
x2 = 0.1655 | 2.81 | 3.32 | 3.87 | 4.51 | 5.25 | 6.03 | 6.91 | 7.89 | 8.92
x2 = 0.3459 | 4.12 | 4.81 | 5.56 | 6.42 | 7.41 | 8.46 | 9.6 | 10.9 | 12.2
x2 = 0.5434 | 5.39 | 6.26 | 7.2 | 8.24 | 9.47 | 10.8 | 12.2 | 13.7 | 15.2
x2 = 0.7604 | 6.63 | 7.67 | 8.77 | 10 | 11.4 | 13 | 14.6 | 16.3 | 18.1

N#CC(c1ccc(Cl)cc1)c1c(Cl)cc(-n2ncc(=O)[nH]c2=O)cc1Cl (centres undefined) + CN(C)C=O + CCO
solubility (g/100 g solution)
Details | 283.15 K | 288.15 K | 293.15 K | 298.15 K | 303.15 K | 308.15 K | 313.15 K | 318.15 K | 323.15 K
x2 = 0.1361 | 3.28 | 3.86 | 4.52 | 5.25 | 6.05 | 6.91 | 7.87 | 8.89 | 9.99
x2 = 0.2959 | 5.7 | 6.56 | 7.46 | 8.51 | 9.59 | 10.8 | 12 | 13.4 | 14.7
x2 = 0.486 | 8.24 | 9.37 | 10.4 | 11.7 | 12.9 | 14.2 | 15.7 | 17.2 | 18.8
x2 = 0.716 | 10.6 | 11.8 | 12.9 | 14.3 | 15.6 | 17 | 18.5 | 20 | 21.6

O=CC(O)C(O)C(O)CO (centres undefined) + CCO + CCCCCC
solubility (g/100 g solution)
Details | x2 = 0.1 | x2 = 0.2 | x2 = 0.3 | x2 = 0.4 | x2 = 0.5 | x2 = 0.6 | x2 = 0.7 | x2 = 0.8 | x2 = 0.9
283.15 K | 0.0708 | 0.0912 | 0.139 | 0.18 | 0.281 | 0.514 | 0.692 | 1.16 | 1.73
293.15 K | 0.0738 | 0.111 | 0.171 | 0.268 | 0.425 | 0.715 | 1.07 | 1.56 | 2.52
303.15 K | 0.0959 | 0.119 | 0.186 | 0.375 | 0.676 | 1.1 | 1.5 | 2.39 | 4.09
313.15 K | 0.117 | 0.179 | 0.269 | 0.599 | 0.925 | 1.8 | 2.44 | 4.02 | 6.9
323.15 K | 0.147 | 0.234 | 0.317 | 0.98 | 1.54 | 2.72 | 3.96 | 6.76 | 12.3

CC(C)Oc1ccc2c(=O)c(-c3ccccc3)coc2c1 + CN(C)C=O + CCO
solubility (g/100 g solution)
Details | 278.15 K | 283.15 K | 288.15 K | 293.15 K | 298.15 K | 303.15 K | 308.15 K | 313.15 K | 318.15 K | 323.15 K
x2 = 0.1358 | 1.29 | 1.64 | 2.07 | 2.55 | 3.28 | 4.15 | 5.33 | 6.87 | 8.61 | 11
x2 = 0.2956 | 2.42 | 3 | 3.68 | 4.58 | 5.6 | 6.95 | 8.67 | 10.9 | 13.3 | 16.5
x2 = 0.4859 | 3.8 | 4.83 | 5.92 | 7.22 | 8.72 | 10.4 | 12.9 | 15.3 | 18.8 | 22.7
x2 = 0.716 | 5.06 | 6.49 | 7.97 | 9.74 | 11.7 | 14.2 | 17.1 | 20.4 | 24 | 28.5

O=C(O)c1ccc(-n2nc(-c3ccccc3O)nc2-c2ccccc2O)cc1 + CC(O)CO + CO
298.15 K
Details | solubility (g/100 g solution)
x2 = 0.0447 | 13.5
x2 = 0.09525 | 14.2
x2 = 0.1529 | 14.4
x2 = 0.2192 | 14.6
x2 = 0.2963 | 14.2
x2 = 0.3871 | 13.7
x2 = 0.4956 | 12.9
x2 = 0.6275 | 11.8
x2 = 0.7912 | 10.4

O=C(O)c1ccc(-n2nc(-c3ccccc3O)nc2-c2ccccc2O)cc1 + CCO + CC#N
298.15 K
Details | solubility (g/100 g solution)
x2 = 0.09009 | 4.09
x2 = 0.1822 | 7.7
x2 = 0.2764 | 11.7
x2 = 0.3727 | 15.7
x2 = 0.4712 | 18.8
x2 = 0.572 | 21.2
x2 = 0.6752 | 21.4
x2 = 0.7809 | 19.3
x2 = 0.8891 | 15.9

CCc1cccc2c3c([nH]c12)C(CC)(CC(=O)O)OCC3 (centres undefined) + COC(C)=O + CCCCCC
solubility (g/100 g solution)
Details | 278.15 K | 283.15 K | 288.15 K | 293.15 K | 298.15 K | 303.15 K | 308.15 K | 313.15 K | 318.15 K | 323.15 K
x2 = 0.2255 | 1.11 | 1.18 | 1.26 | 1.35 | 1.42 | 1.5 | 1.61 | 1.69 | 1.76 | 1.86
x2 = 0.4369 | 3.55 | 3.98 | 4.43 | 4.96 | 5.39 | 5.87 | 6.35 | 6.88 | 7.34 | 7.96
x2 = 0.6357 | 4.26 | 5.33 | 6.41 | 7.66 | 8.86 | 9.93 | 11.4 | 12.9 | 14.1 | 15.7
x2 = 0.8229 | 10.8 | 12.1 | 13.6 | 15.1 | 16.7 | 18.3 | 20.2 | 22.4 | 24.4 | 26

O=CC(O)C(O)C(O)CO (centres undefined) + CO + ClCCl
solubility (g/100 g solution)
Details | x2 = 0.1 | x2 = 0.2 | x2 = 0.3 | x2 = 0.4 | x2 = 0.5 | x2 = 0.6 | x2 = 0.7 | x2 = 0.8 | x2 = 0.9
283.15 K | 0.097 | 0.564 | 1.19 | 1.64 | 2.52 | 3.8 | 4.89 | 6.81 | 9.89
288.15 K | 0.17 | 0.673 | 1.33 | 1.81 | 2.86 | 4.63 | 5.87 | 8.86 | 12.6
293.15 K | 0.204 | 0.696 | 1.5 | 2.4 | 3.52 | 5.59 | 7.17 | 10.8 | 15.8
298.15 K | 0.281 | 0.774 | 1.78 | 2.73 | 4.3 | 6.87 | 9.1 | 13.4 | 20.1
303.15 K | 0.286 | 0.82 | 2.17 | 3.22 | 5.29 | 9.18 | 12.7 | 18.3 | 25.3

O=c1cc(-c2ccccc2)oc2cc(O)c(O)c(O)c12 + CCO + O
solubility (g/100 g solution)
Details | 283.15 K | 288.15 K | 293.15 K | 298.15 K | 303.15 K | 308.15 K | 313.15 K | 318.15 K | 323.15 K | 328.15 K
x2 = 0.2 | 0.0427 | 0.0499 | 0.0671 | 0.0809 | 0.0932 | 0.105 | 0.128 | 0.157 | 0.179 | 0.228
x2 = 0.4 | 0.194 | 0.221 | 0.262 | 0.314 | 0.372 | 0.444 | 0.554 | 0.643 | 0.73 | 0.887
x2 = 0.6 | 0.413 | 0.455 | 0.52 | 0.587 | 0.663 | 0.795 | 0.919 | 1.07 | 1.23 | 1.46
x2 = 0.8 | 0.474 | 0.525 | 0.574 | 0.634 | 0.728 | 0.831 | 0.939 | 1.08 | 1.27 | 1.51

Cc1cc(Cl)cc(C(=O)O)c1N + CC(C)=O + CCCCCC
solubility (g/100 g solution)
Details | 278.15 K | 283.15 K | 288.15 K | 293.15 K | 298.15 K | 303.15 K | 308.15 K | 313.15 K | 318.15 K | 323.15 K
x2 = 0.2386 | 0.677 | 0.753 | 0.884 | 1.03 | 1.18 | 1.35 | 1.58 | 1.88 | 2.21 | 2.59
x2 = 0.4322 | 1.29 | 1.42 | 1.66 | 1.92 | 2.18 | 2.5 | 2.92 | 3.45 | 4.05 | 4.74
x2 = 0.5923 | 1.87 | 2.05 | 2.39 | 2.75 | 3.12 | 3.56 | 4.16 | 4.9 | 5.75 | 6.71
x2 = 0.7271 | 2.4 | 2.64 | 3.07 | 3.53 | 3.99 | 4.55 | 5.31 | 6.25 | 7.32 | 8.52
x2 = 0.842 | 2.91 | 3.2 | 3.71 | 4.26 | 4.81 | 5.48 | 6.38 | 7.5 | 8.77 | 10.2
x2 = 0.9411 | 3.39 | 3.72 | 4.31 | 4.95 | 5.58 | 6.35 | 7.38 | 8.66 | 10.1 | 11.7

CCc1cccc2c3c([nH]c12)C(CC)(CC(=O)O)OCC3 (centres undefined) + CCCO + CCCCCC
solubility (g/100 g solution)
Details | 278.15 K | 283.15 K | 288.15 K | 293.15 K | 298.15 K | 303.15 K | 308.15 K | 313.15 K | 318.15 K | 323.15 K
x2 = 0.2645 | 3.73 | 4.25 | 4.84 | 5.55 | 6.34 | 7.19 | 8.14 | 9.21 | 10.4 | 11.7
x2 = 0.4889 | 7.29 | 8.31 | 9.43 | 10.8 | 12.2 | 14 | 15.9 | 18.1 | 20.6 | 23.4
x2 = 0.6827 | 10.4 | 11.8 | 13.4 | 15.2 | 17 | 19.4 | 22.2 | 25.3 | 28.6 | 31.9
x2 = 0.8514 | 12.8 | 14.4 | 16.5 | 18.7 | 21.5 | 24.5 | 27.9 | 31.4 | 35.1 | 38.5

Cl.c1ccc2c(CC3=NCCN3)cccc2c1 + CO + CCO
solubility (g/100 g solution)
Details | 278.15 K | 283.15 K | 288.15 K | 293.15 K | 298.15 K | 303.15 K | 308.15 K | 313.15 K | 318.15 K | 323.15 K
x2 = 0.1377 | 2.14 | 2.61 | 3.11 | 3.69 | 4.45 | 5.14 | 5.88 | 6.74 | 7.61 | 8.5
x2 = 0.2644 | 3.05 | 3.54 | 3.96 | 4.7 | 5.27 | 6.18 | 7.06 | 8.2 | 9.28 | 10.6
x2 = 0.3812 | 3.8 | 4.39 | 5.05 | 5.74 | 6.63 | 7.58 | 8.73 | 9.78 | 11.4 | 12.7
x2 = 0.4894 | 4.21 | 4.86 | 5.45 | 6.36 | 7.17 | 8 | 9.31 | 10.4 | 11.9 | 13.2
x2 = 0.5898 | 4.47 | 5.59 | 6.2 | 7.21 | 8.02 | 9.29 | 10.6 | 11.7 | 13.2 | 14.6
x2 = 0.6832 | 4.86 | 5.8 | 6.77 | 7.78 | 8.82 | 10 | 11.3 | 12.8 | 14.4 | 16.1
x2 = 0.7704 | 5.03 | 6.14 | 7.26 | 8.67 | 10.3 | 11.5 | 13.1 | 14.6 | 16.2 | 18.3
x2 = 0.8519 | 5.48 | 6.63 | 7.79 | 9.34 | 11 | 13.3 | 14.8 | 16.8 | 18.5 | 20.5
x2 = 0.9283 | 5.66 | 6.83 | 8.15 | 9.82 | 11.7 | 14 | 15.7 | 18 | 19.9 | 21.9

O=C(O)c1ccc(-n2nc(-c3ccccc3O)nc2-c2ccccc2O)cc1 + CCO + CO
298.15 K
Details | solubility (g/100 g solution)
x2 = 0.07174 | 12.7
x2 = 0.1481 | 12.9
x2 = 0.2296 | 12.8
x2 = 0.3168 | 12.7
x2 = 0.4102 | 12.5
x2 = 0.5106 | 12.2
x2 = 0.6188 | 11.9
x2 = 0.7356 | 11.5
x2 = 0.8623 | 11
